From US20260234188A1, “CHEMOKINE-BINDING PEPTIDES” (Oxford University Innovation Limited, priority 2022, published 2026)
Entries after “also recorded” stand apart in the source; their conditions may differ.

Tested on: panel of up to 42 human chemokines
Assay: Phage-display next generation sequencing screen of overlapping hexadecapeptide libraries, chemokines displayed on streptavidin beads
Type: binding
Text: FIG. 1. Exemplar results from phage display screens. Phage-display libraries were constructed and analysed as described in (McLaughlin, 2013) (Tonikian, 2007). […] FIG. 1A, CC chemokines against evasin A library. FIG. 1B, CXC chemokines against the evasin B library. FIG. 1C, CXC and CX3C chemokines against the viral chemokine binding protein library. FIG. 1D, CXC chemokines against the chemokine library. […] Identified hexadecapeptides were mapped to the position in the originating protein (x-axis) and to fold enrichment (log 2 E, left y-axis). Regions of interest (ROI) were defined where the cumulative residue log 2 E, (clog 2 E:r, right y-axis) exceeds the 95% upper confidence interval of the median clog 2 E:r for the entire protein (indicated as a horizontal dotted line in each panel). Proteins are referred to by their UniProt ID.
Hexadecapeptides were identified using a phage-display next generation sequencing approach (McLaughlin, 2013). Libraries containing a total of 55662 overlapping peptides (from the tick chemokine binding proteins shown in Tables 3A and 3B, the viral chemokine binding proteins shown in Table 3C, the human chemokines shown in Table 3 E, and the human/viral chemokine receptors and other chemokine-binding proteins shown in Table 3D) were first constructed, and then screened against a panel of up to 42 human chemokines, as shown in Table 3F.

[1] = log2E greater than 5, chemokines named by first part of UniProt entry name, C5a (control) binders excluded
[2] = log2E greater than 5, chemokines named by first part of UniProt Entry Name
[3] = log2E greater than 5, chemokines named by first part of UniProt Entry Name, peptides binding complement C5a (control) excluded

## CR13507 (LLTWLAGLIFSVPAAV)
[1]
  Chemokines Bound: CCL1, CCL11,; also recorded: CCL17, CCL18,; also recorded: CCL19, CCL2,; also recorded: CCL20, CCL22,; also recorded: CCL25, CCL28,; also recorded: X3CL1, CXL10,; also recorded: CXL11, SDF1,; also recorded: CXL14, IL8

## CR10279 (IYLLNLAISNLLFLVT)
[1]
  Chemokines Bound: CCL28, SDF1,; also recorded: CXL13, IL8

## CR24702 (VFYSLLFVFSLLGNSL)
[2]
  Chemokines Bound: CCL17, CCL18, and CCL19, CCL20, and CCL22, CCL25, and CCL5, X3CL1, and CXL11, CXL14, and IL8

## CR20068 (SAVLTLKVILGFFLPF)
[1]
  Chemokines Bound: CCL17, CCL18,; also recorded: CCL20, CCL25,; also recorded: CCL28, CXL11

## CR12869 (LIWVISLLVSLPQIIY)
[1]
  Chemokines Bound: CCL17, CCL18, and X3CL1, CXL14, and IL8

## VP6307 (MYSLVFVILMCIPFSF)
[3]
  Chemokines Bound: X3CL1, CXL11,; also recorded: CXL13, IL8

## CR7854 (GWVFIFSSIQLATVVF)
[3]
  Chemokines Bound: CCL1, CCL15, and CCL17, CCL19, and CCL20, CCL22, and CCL28, X3CL1, and CXL10, CXL11, and SDF1, CXL13, and IL8

## CR20429 (SFYISLFAGVSFLINL)
[1]
  Chemokines Bound: CCL22, CCL25,; also recorded: CXL10, CXL11

## CR2340 (AYDLFIGIKIVYCFLW)
[2]
  Chemokines Bound: CCL15, CCL17, and CCL18, CCL19, and CCL20, CCL22, and CCL25, CCL28, and X3CL1, CXL10, and CXL11, SDF1, and CXL13, CXL14, and IL8

## CR20981 (SLFSALVTLITSLFGS)
[1]
  Chemokines Bound: CCL1, CCL11,; also recorded: CCL17, CCL18,; also recorded: CCL2, CCL25,; also recorded: CCL8, X3CL1,; also recorded: CXL10, IL8

## CR6515 (FWTPYNIVLFLETLVE)
[3]
  Chemokines Bound: CCL20, CCL22, and CXL10, CXL13, and IL8

## CR11604 (LALSISLLAEVLMFLF)
[1]
  Chemokines Bound: CCL17, CCL18,; also recorded: CCL20, CCL25,; also recorded: CXL10, CXL13,; also recorded: CXL14, IL8

## CR20557 (SGYDMWLMLVYSVMIP)
[1]
  Chemokines Bound: CCL1, CCL15,; also recorded: CCL25

## CR4756 (FASDFVLMWAVFFMTV)
[2]
  Chemokines Bound: CCL17, X3CL1,; also recorded: CXL10

## CR5775 (FMIFAYTFIVKTLVQA)
[3]
  Chemokines Bound: CCL17, CCL18, and CCL28, X3CL1, and CXL11, SDF1, and CXL13, CXL14, and IL8

## CR5738 (FLWGIFPTVIFSYFYV)
[3]
  Chemokines Bound: CCL18, CCL22, and CCL8, X3CL1, and CXL10, CXL11, and IL8

## CR1005 (ALAFIYVLMFLSNAIG)
[1]
  Chemokines Bound: CCL19, CCL2,; also recorded: CCL20, CCL28,; also recorded: CXL14

## CR10175 (IVTIIITFFLSWSPYH)
[1]
  Chemokines Bound: CCL1, CCL17,; also recorded: CCL18, CCL20,; also recorded: CCL22, CCL25,; also recorded: CCL28, X3CL1,; also recorded: CXL10, CXL11,; also recorded: CXL14

## CR24612 (VFLSIFYSVIFAIGLV)
[2]
  Chemokines Bound: CCL17, CCL18,; also recorded: CCL22, CCL25,; also recorded: CCL28, X3CL1,; also recorded: CXL10, CXL11,; also recorded: SDF1, CXL13,; also recorded: CXL14

## CR15063 (LWVVVFQFQHIMVGLI)
[1]
  Chemokines Bound: CCL17, CCL18, and CCL19, CCL2, and CCL20, CCL22, and CCL28, CCL8, and X3CL1, CXL10, and CXL11, SDF1, and CXL13, CXL14, and IL8

## CR8437 (HTVLLSWKVLLTMVWG)
[3]
  Chemokines Bound: CCL1, CCL18,; also recorded: CCL19, CCL20,; also recorded: CXL13

## CR3107 (DFAAILLYIDDFSAYF)
[2]
  Chemokines Bound: CCL18, X3CL1,; also recorded: CXL13

## LTDGTACYVVERKVWD [HD2313]
[3]
  Chemokines Bound: CCL19, CCL20,; also recorded: CCL28

## CR20433 VP8386 (SFYVAMFASLSFITEI)
[1]
  Chemokines Bound: CCL1, X3CL1, and CXL10, CXL11, and IL8

## CR23240 (TLPFWGISVAWHWVFG)
[2]
  Chemokines Bound: CCL17, CCL18,; also recorded: CCL20, X3CL1,; also recorded: CXL11

## CR22786 (TFTGLIAAFSWFMLSL)
[1]
  Chemokines Bound: CCL11, CCL17,; also recorded: CCL18, CCL2,; also recorded: CCL20, CCL22,; also recorded: CCL28, X3CL1,; also recorded: SDF1, IL8

## CR14765 (LVFLLSLVGNSLVLWV)
[1]
  Chemokines Bound: CCL2, CCL28,; also recorded: CXL10, IL8

## CR17298 (PGPWMNILWAWFIFWW)
[1]
  Chemokines Bound: CCL1, CCL17,; also recorded: CCL18, CCL19,; also recorded: CCL20, CCL28,; also recorded: CXL10, CXL14

## CR26500 (WFLPIMYSIICFVGLL)
[2]
  Chemokines Bound: CCL28, SDF1,; also recorded: CXL14

## CR7477 (GPGPWMNILWAWFIFW)
[3]
  Chemokines Bound: CCL17, CCL18, and CCL19, CCL20, and CCL25, CXL13, and IL8

## CR26399 (VYTVLLSWKVLLTLVW)
[2]
  Chemokines Bound: CCL1, CCL17, and CCL18, CCL19, and CCL20, CCL22, and CCL25, CCL28, and X3CL1, CXL10, and CXL11, SDF1, and CXL13, CXL14, and IL8

## CR4754 (FARAIDIIYSLITSAN)
[2]
  Chemokines Bound: CCL18, CCL28,; also recorded: X3CL1

## EB630 (DKKVGLCLSTEYTDFS)
[3]
  Chemokines Bound: CXL10, SDF1,; also recorded: CXL14

## CK1301 (FIADYFETSSQCSKPS)
[1]
  Chemokines Bound: CCL20, CXL10,; also recorded: CXL14, IL8
